Laboratory results reported in US9072762B2, “Natural composition to decrease effects of a high fat diet” (Board of Supervisors of Louisiana State University And …, priority 2009, dated 2015).

Assays:
[1] = format: in vivo, rat; conditions: for Oral bioavailability / absorption: rat, in vivo
Description: Thirty-two normal male SD rats were used in the experiment. Prior to treatment, all rats were fasted overnight. The treated group (n=24) received the RUS extract at a dose of 1 g/kg of body weight (0.1% w/w), and the control group (n=8) received the same volume of water via daily gavage for 3 consecutive days. All rats were given free access to food and water after the gavage. Urine was collected cumulatively for 24 hours on the third day after treatment began.

[2] = system: VEGF; test: Western blot of HUVEC cell lysates for VEGF expression; format: cell-based, human; conditions: 24 hrs, concentrations up to about 40 μg/ml
Description: (§1) The HUVEC assay used human umbilical vein endothelial cells purchased from the American Type Culture Collection (ATCC # CRL-1730, Manassas, Va.). Human umbilical vein endothelial cells (HUVEC) were grown in M199 media containing 20% fetal bovine serum, 30 μg/ml endothelial cell growth supplements, 4 mM L-glutamin, 100 U/ml penicillin, and 100 μg/ml streptomycin. Cells were incubated at 37° C. in a humidified atmosphere of 5% CO2. […] Cells were then lysed with lysis buffer containing 20 mM MOPS, 2 mM EGTA, 5 mM EDTA, 30 mM NaF, 40 mM (3-glycerophosphate, 20 mM sodium pyruvate, 0.5% Triton X-100, and 1 mM sodium orthovanadate with protease inhibitor cocktail (Sigma), and the cell lysates were subjected to protein analysis and western blotting analysis to assess for VEGF (vascular endothelial growth factor), FGF or bFGF (basic fibroblast growth factor), and FLK-1 (a VEGFR2 receptor protein) using the relevant antibodies of VEFG (R&D System), bFGF (Upstate Biotechnology); FLK-1 (Santa Cruz Biotechnology). (See Ma, J. et al., “PTEN regulate angiogenesis through PI3k/AktNEGF signaling pathway in human pancreatic cancer cells,” Mol. Cell Biochem., vol. 331, pp. 161-171 (2009); and Sukhthanjar, M., et al., “A green tea component suppresses posttranslational expression of basic fibroblast growth factor in colorectal cancer. Gastroenterology,” vol. 134, pp. 1972-1980 (2008)). β-Actin was used as a quality control of the assays.

[3] = system: FLK-1 (a VEGFR2 receptor protein); test: Western blot of HUVEC cell lysates for FLK-1 expression; format: cell-based, human; conditions: 24 hrs, concentrations up to about 40 μg/ml
Description: The HUVEC assay used human umbilical vein endothelial cells purchased from the American Type Culture Collection (ATCC # CRL-1730, Manassas, Va.). Human umbilical vein endothelial cells (HUVEC) were grown in M199 media containing 20% fetal bovine serum, 30 μg/ml endothelial cell growth supplements, 4 mM L-glutamin, 100 U/ml penicillin, and 100 μg/ml streptomycin. Cells were incubated at 37° C. in a humidified atmosphere of 5% CO2. […] Cells were then lysed with lysis buffer containing 20 mM MOPS, 2 mM EGTA, 5 mM EDTA, 30 mM NaF, 40 mM (3-glycerophosphate, 20 mM sodium pyruvate, 0.5% Triton X-100, and 1 mM sodium orthovanadate with protease inhibitor cocktail (Sigma), and the cell lysates were subjected to protein analysis and western blotting analysis to assess for VEGF (vascular endothelial growth factor), FGF or bFGF (basic fibroblast growth factor), and FLK-1 (a VEGFR2 receptor protein) using the relevant antibodies of VEFG (R&D System), bFGF (Upstate Biotechnology); FLK-1 (Santa Cruz Biotechnology). (See Ma, J. et al., “PTEN regulate angiogenesis through PI3k/AktNEGF signaling pathway in human pancreatic cancer cells,” Mol. Cell Biochem., vol. 331, pp. 161-171 (2009); and Sukhthanjar, M., et al., “A green tea component suppresses posttranslational expression of basic fibroblast growth factor in colorectal cancer. Gastroenterology,” vol. […]

[4] = system: bFGF; test: Western blot of HUVEC cell lysates for bFGF expression; format: cell-based, human; conditions: 24 hrs, concentrations up to about 40 μg/ml
Description: as §1

[5] = rats, 24 hr urine after oral RUS 1.0 g/kg of body weight

Compound	Unmetabolized compound in the urine [1, 5] [µg]	Unmetabolized compound in urine as % of amount orally administered [1, 5]	Expression of VEGF [2]	Expression of FLK-1 [3]	Expression of bFGF [4]	Oral bioavailability / absorption [1]
O=C(O)c1cc(O)c(O)c(O)c1 [gallic acid]	91.7	about 4.5%	inhibited the expression of VEGF in a concentration-dependent manner	slightly reduced the expression of FLK-1	did not suppress the expression of bFGF	
C=C1C[C@@]23CC[C@H]4[C@@](C)(CCC[C@@]4(C)C(=O)O[C@@H]4O[C@H](CO)[C@@H](O)[C@H](O)[C@H]4O)[C@@H]2CC[C@]1(O[C@@H]1O[C@H](CO)[C@@H](O)[C@H](O)[C@H]1O)C3 [rubusoside]			did not inhibit the expression of either bFGF or VEGF	reduced the expression of FLK-1	did not inhibit the expression of either bFGF or VEGF	orally bioavailable
O=c1oc2c(O)c(O)cc3c(=O)oc4c(O)c(O)cc1c4c23 [ellagic acid]			inhibited the expression of VEGF in a concentration-dependent manner		did not suppress the expression of bFGF	orally bioavailable
